Earlier results as cited in patent publication US7498354B2, “Pyrrolo[2,3-D]imidazoles for the treatment of hyperproliferative disorders” (OSI Pharmaceuticals, Inc., priority 2006, dated 2009).
Counter-ions that a name gives are not always drawn.

How the values were obtained:
[1] = test system: MO7e human leukemia cells; details: Kit ligand stimulation
[2] = test system: MO7e human leukemia cells; details: GM-CSF stimulation

Cc1ccc(NC(=O)c2ccc(CN3CCN(C)CC3)cc2)cc1Nc1nccc(-c2cccnc2)n1 [Gleevec, imatinib mesylate]
Kit ligand-stimulated growth of MO7e human leukemia cells [1]: inhibited | apoptosis in Kit ligand-stimulated MO7e cells [1]: induces apoptosis | GM-CSF stimulated growth of MO7e human leukemia cells [2]: not affected
